Laboratory results reported in ChEMBL document CHEMBL1201862, “PubChem BioAssay data set” (2004).
Active and inactive are the calls of the source.

How the values were obtained:
Ephrin type-A receptor 4 = Ephrin type-A receptor 4 (Mus musculus, UniProt Q03137); assay: inhibitors of EphA4 binding to KYL peptide, primary screen, biochemical, colorimetric, mouse EphA4 (AID 689); format: functional
[1] = molecular target: Voltage-dependent T-type calcium channel subunit alpha-1H (Homo sapiens, UniProt O95180); format: functional;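 further: channel activity triggered by adding a high calcium stimulation buffer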
[2] = HEp-2 cell cytotoxicity, dose response, cytotoxicity control for RSV inhibitor project, HTS (AID 2410); format: functional; details: human respiratory syncytial virus
cells [3] = assay: cells
Vero = assay: cells; format: functional, cell-based; details: Chlorocebus sabaeus
Nonstructural protein 1 = Nonstructural protein 1 (Influenza A virus, UniProt Q194T2); format: functional, Influenza A virus (A/California/07/2009(H1N1))
[4] = molecular target: Protein-tyrosine kinase 2-beta (Homo sapiens, UniProt Q14289);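 further: potency of inhibitors of PYK2 kinase phosphorylation of poly-GT substrate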
[5] = molecular target: 5-hydroxytryptamine receptor 1E (Homo sapiens, UniProt P28566); assay: Counterscreen assay for S1P3 antagonists: Dose response cell-based high throughput screening assay to identify antagonists of the 5-Hydroxytryptamine Receptor Subtype 1E (5HT1E). [Related pubchem assays: 1429, 485 ]; format: functional
[6] = molecular target: Sphingosine 1-phosphate receptor 3 (Homo sapiens, UniProt Q99500); assay: Dose response cell-based high throughput screening assay for antagonists of the Sphingosine 1-Phosphate Receptor 3 (S1P3). [Related pubchem assays: 1429, 485 ]; format: functional
Cytochrome P450 2C9 = Cytochrome P450 2C9 (Homo sapiens, UniProt P11712); details: Potency
[7] = molecular target: 5-hydroxytryptamine receptor 1A (Homo sapiens, UniProt P08908); format: functional
Estrogen receptor beta [8] = molecular target: T1, Estrogen receptor beta (Homo sapiens, UniProt Q92731);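 further: recombinant ER-beta bound to coactivator SRC1 peptide in presence of estradiol agonist; inhibitors block coactivator peptide binding and lower the FRET signal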
Estrogen receptor beta [9] = molecular target: T1, Estrogen receptor beta; assay: ERβ–SRC-3 coactivator interaction inhibitors, confirmation, orthogonal assay, biochemical, ELISA, streptavidin-HRP readout (AID 1060)
Cytochrome P450 3A4 = Cytochrome P450 3A4 (Homo sapiens, UniProt P08684); details: Potency;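 further: confirmatory qHTS run detecting inhibitors and substrates of CYP3A4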
[10] = molecular target: Epstein-Barr nuclear antigen 1 (Epstein-Barr virus (strain B95-8) (HHV-4) (Human herpesvirus 4), UniProt P03211); assay: EBNA-1 inhibitors, dose response, biochemical, fluorescence polarization, 1536-well (AID 2381); design: species or system human gammaherpesvirus 4;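 further: fluorescence polarization of a Cy5 DNA probe bound by EBNA-1 protein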
[11] = molecular target: Lytic switch protein BZLF1 (Epstein-Barr virus (strain B95-8) (HHV-4) (Human herpesvirus 4), UniProt P03206); assay: EBV ZTA inhibitors, dose response, counter-screen for EBNA-1 inhibitor project, biochemical, fluorescence polarization, Epstein-Barr virus, 1536-well (AID 2377); design: species or system human gammaherpesvirus 4;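 further: fluorescence polarization of Cy5-labelled ZRE DNA probe bound by purified Zta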
[12] = P. falciparum late gametocyte killing, dose response, luminescence (AID 1117278); format: functional, cell-based;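 further: gametocytes exposed to compound for 24 hours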
[13] = Jurkat T cell cytotoxicity, dose response, cytotoxicity control for P. falciparum gametocyte viability project, luminescence (AID 1117277); format: functional, cell-based;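 further: potency reflects loss of cellular ATP meaning fewer viable cells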
[14] = cytotoxicity toward NIH3T3 fibroblasts, dose response, counter-screen, cell-based, ATP luminescence, mouse fibroblasts (AID 2010); format: functional;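 further: cells exposed to compound for about 90 hours before reading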
[15] = inhibitors of intracellular T. cruzi replication, confirmation, NIH3T3 host cells, beta-gal luminescence (AID 2044); format: functional, cell-based;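 further: intracellular parasites grown in NIH/3T3 mouse fibroblasts as host cells; luminescent beta-galactosidase reporter signal from transgenic T. cruzi replicating inside host cells; inhibitors lower the luminescence signal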
cells [16] = assay: cells; remark: listed apart in the source

T1 sequence (Q92731 whole entry): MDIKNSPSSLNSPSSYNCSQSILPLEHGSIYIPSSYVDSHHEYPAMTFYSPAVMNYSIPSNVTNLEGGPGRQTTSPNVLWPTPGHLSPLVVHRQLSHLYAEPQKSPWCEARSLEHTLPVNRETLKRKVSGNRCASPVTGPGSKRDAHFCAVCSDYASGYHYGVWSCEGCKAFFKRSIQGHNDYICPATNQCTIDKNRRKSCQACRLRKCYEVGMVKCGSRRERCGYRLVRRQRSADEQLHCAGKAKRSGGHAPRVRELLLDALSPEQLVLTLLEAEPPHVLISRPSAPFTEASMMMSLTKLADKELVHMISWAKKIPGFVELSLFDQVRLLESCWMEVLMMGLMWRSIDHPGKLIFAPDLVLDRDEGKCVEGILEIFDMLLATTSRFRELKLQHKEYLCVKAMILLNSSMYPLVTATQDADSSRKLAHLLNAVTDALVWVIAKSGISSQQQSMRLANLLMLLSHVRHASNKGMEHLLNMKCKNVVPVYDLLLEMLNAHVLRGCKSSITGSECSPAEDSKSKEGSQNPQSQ
Sequence of Lytic switch protein BZLF1 (P03206 whole entry): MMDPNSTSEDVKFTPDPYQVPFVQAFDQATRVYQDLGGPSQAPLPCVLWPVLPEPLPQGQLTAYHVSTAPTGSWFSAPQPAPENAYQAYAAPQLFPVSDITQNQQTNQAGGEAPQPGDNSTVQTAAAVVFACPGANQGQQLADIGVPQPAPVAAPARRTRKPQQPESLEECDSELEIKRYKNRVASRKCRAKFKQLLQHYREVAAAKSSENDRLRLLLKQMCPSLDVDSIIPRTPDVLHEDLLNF
Sequence of Cytochrome P450 2C9 (P11712 whole entry): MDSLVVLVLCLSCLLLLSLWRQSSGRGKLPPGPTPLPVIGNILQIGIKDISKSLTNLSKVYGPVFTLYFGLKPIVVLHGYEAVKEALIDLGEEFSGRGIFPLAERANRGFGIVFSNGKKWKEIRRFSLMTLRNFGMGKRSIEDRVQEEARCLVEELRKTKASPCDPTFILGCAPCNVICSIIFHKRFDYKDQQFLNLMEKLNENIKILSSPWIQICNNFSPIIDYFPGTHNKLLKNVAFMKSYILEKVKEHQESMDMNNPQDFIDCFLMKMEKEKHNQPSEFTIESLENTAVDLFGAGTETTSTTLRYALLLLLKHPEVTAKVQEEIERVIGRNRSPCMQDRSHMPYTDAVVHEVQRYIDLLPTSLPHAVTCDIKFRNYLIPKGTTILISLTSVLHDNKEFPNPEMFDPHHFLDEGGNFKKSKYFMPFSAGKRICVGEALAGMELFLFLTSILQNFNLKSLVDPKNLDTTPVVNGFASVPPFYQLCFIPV
Sequence of Epstein-Barr nuclear antigen 1 (P03211 whole entry): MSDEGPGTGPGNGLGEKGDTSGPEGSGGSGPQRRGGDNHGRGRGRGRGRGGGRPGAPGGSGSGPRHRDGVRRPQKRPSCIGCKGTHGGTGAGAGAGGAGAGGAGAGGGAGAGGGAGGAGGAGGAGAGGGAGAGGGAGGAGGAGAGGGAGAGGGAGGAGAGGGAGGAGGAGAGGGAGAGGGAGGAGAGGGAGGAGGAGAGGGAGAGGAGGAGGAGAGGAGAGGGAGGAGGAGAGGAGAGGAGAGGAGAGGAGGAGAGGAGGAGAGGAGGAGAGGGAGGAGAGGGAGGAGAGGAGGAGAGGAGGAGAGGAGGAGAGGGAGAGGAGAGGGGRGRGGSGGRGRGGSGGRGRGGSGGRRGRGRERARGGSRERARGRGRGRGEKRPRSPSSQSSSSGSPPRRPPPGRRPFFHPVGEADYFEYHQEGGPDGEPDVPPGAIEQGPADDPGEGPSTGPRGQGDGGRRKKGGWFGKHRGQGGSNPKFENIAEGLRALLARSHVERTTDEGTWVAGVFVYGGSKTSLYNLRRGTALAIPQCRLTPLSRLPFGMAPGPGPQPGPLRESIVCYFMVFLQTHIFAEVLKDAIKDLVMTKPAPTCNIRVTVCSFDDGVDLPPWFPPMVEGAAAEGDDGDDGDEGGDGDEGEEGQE
Sequence of Ephrin type-A receptor 4 (Q03137 whole entry): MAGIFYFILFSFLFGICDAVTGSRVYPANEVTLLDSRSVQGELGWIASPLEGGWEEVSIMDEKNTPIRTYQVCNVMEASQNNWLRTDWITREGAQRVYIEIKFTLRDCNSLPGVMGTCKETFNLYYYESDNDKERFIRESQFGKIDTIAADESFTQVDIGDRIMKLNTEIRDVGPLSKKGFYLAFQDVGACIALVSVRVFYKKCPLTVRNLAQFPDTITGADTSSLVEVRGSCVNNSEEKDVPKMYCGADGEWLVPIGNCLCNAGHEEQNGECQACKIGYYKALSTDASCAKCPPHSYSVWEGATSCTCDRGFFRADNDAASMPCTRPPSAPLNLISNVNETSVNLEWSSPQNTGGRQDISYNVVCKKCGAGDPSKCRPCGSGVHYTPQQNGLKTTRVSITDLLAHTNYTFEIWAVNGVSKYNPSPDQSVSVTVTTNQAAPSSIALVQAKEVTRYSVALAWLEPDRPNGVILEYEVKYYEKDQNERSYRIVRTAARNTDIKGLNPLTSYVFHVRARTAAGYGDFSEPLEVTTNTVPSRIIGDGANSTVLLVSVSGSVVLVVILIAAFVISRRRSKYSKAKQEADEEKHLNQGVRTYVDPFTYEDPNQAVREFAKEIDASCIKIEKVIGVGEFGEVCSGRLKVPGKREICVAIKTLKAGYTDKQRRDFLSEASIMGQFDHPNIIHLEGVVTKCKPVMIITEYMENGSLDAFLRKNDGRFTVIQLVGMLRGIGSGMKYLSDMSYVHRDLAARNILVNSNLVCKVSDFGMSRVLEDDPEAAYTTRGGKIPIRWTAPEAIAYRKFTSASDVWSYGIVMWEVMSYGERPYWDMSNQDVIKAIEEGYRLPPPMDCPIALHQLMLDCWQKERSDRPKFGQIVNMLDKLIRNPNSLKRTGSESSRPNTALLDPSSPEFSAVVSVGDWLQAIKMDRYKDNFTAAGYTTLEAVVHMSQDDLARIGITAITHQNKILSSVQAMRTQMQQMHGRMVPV
Sequence of Cytochrome P450 3A4 (P08684 whole entry): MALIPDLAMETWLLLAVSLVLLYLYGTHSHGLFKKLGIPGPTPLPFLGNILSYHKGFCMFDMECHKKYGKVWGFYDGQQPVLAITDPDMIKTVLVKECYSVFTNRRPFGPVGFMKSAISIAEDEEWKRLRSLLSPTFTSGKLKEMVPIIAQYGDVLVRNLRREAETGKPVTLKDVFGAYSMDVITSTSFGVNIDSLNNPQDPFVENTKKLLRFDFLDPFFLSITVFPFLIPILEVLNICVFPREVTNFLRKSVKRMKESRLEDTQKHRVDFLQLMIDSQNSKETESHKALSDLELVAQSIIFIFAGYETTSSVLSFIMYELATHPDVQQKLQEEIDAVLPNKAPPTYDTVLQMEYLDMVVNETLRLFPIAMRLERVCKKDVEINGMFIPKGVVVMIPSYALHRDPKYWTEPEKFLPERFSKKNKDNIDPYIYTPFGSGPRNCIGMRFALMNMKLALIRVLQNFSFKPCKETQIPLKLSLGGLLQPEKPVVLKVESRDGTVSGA
Sequence of Nonstructural protein 1 (Q194T2 whole entry): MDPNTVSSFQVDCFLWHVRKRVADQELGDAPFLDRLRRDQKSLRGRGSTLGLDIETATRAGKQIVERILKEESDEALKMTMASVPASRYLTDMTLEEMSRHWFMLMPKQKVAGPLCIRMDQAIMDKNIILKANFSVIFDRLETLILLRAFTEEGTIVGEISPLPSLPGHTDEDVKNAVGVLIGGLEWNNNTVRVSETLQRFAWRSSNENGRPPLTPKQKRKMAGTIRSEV
Sequence of Sphingosine 1-phosphate receptor 3 (Q99500 whole entry): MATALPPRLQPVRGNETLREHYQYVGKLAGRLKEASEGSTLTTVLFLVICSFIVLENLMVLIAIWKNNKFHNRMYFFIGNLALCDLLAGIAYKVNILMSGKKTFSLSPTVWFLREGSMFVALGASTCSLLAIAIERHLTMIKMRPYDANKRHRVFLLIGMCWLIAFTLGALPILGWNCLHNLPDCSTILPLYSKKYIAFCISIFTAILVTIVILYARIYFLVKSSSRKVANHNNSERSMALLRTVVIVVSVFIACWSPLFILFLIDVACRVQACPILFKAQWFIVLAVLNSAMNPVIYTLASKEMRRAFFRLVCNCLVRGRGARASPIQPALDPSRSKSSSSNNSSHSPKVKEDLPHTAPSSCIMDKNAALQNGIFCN
Sequence of Protein-tyrosine kinase 2-beta (Q14289 whole entry): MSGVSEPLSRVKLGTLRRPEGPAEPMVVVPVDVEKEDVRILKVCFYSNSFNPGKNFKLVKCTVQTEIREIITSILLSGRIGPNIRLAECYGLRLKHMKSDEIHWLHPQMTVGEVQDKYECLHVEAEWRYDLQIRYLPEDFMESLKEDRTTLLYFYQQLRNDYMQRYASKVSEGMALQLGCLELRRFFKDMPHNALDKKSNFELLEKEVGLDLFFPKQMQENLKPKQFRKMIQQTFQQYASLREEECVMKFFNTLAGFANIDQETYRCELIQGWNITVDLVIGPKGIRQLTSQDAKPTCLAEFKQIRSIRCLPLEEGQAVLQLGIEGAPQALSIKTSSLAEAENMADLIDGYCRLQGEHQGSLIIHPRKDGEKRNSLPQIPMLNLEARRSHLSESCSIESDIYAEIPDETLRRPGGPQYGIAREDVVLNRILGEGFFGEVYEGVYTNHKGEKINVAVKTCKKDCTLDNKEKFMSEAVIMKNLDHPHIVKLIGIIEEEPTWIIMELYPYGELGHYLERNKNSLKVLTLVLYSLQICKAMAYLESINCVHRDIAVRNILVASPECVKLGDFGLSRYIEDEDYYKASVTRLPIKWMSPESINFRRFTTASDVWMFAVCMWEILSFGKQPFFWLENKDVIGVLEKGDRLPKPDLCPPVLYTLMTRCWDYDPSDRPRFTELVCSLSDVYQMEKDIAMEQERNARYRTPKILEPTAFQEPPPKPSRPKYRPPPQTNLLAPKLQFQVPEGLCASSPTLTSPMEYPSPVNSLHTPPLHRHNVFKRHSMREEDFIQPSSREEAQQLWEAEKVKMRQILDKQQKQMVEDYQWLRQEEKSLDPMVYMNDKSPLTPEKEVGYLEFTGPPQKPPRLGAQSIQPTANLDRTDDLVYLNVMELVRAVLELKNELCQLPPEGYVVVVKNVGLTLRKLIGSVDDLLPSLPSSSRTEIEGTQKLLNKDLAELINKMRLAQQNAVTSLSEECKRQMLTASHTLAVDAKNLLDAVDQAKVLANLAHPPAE

Which IC50 (Ephrin type-A receptor 4) does the source give for `Cc1cccc2cc(/C=C3\N=C(c4ccccc4)OC3=O)c(N3CCOCC3)nc12` here?
The IC50 was 1.35 µM (active).

What about the EC50 [1] of the same molecule?
Its EC50 is 0.685 µM (active).

Which results are given for `O=C(CCNC(=O)c1ccc(Cl)cc1)NC1CCCc2ccccc21` (stereo unspecified)?
CC50 [2]: 40.2 µM (active); IC50 (cells [3]): 13.4 µM (active); IC50 (Vero): 19.8 µM (active)

With `CN(C)c1cc2c(c(N(C)C)c1)C(=O)c1ccccc1C2=O` as the molecule, how does the IC50 (Nonstructural protein 1) read?
Its IC50 is 14.1 µM (active).

And the IC50 [4]?
The IC50 was 2.13 µM (active).

What does the source list for `CCc1ccccc1NC1c2ccccc2C(=O)N1Cc1ccco1` (stereo unspecified)?
IC50 [5]: 15.6 µM (not active); IC50 [6]: > 50 µM (not active)

With `CC(=O)c1ccc(OC2C=CC(c3ccc(Cl)cc3)OC2CO)cc1` (stereo unspecified) as the molecule, how does the AC50 (Cytochrome P450 2C9) read?
Its AC50 is 5.01 µM (inconclusive).

Which EC50 [7] does the source give for `CCc1nn(C(C)C(=O)NCCN2CCN(c3cccc(C)c3C)CC2)c(=O)c2cc3occc3n12` (stereo unspecified) here?
The EC50 was > 50 µM (not active).

Which IC50 (Estrogen receptor beta [8]) does the source give for `N=c1c(-c2nc3ccccc3[nH]2)cc(C(=O)c2cccs2)nn1-c1ccc(Cl)cc1` here?
Its IC50 is > 50 µM (not active).

What about the IC50 (Estrogen receptor beta [9]) of the same molecule?
The IC50 was > 50 µM (not active).

For `CNC(=O)[C@@H]1C[C@H]1[C@@H](NC(=O)CNC(=O)OCc1ccccc1)c1ccccc1`, which AC50 (Cytochrome P450 3A4) is on record?
The AC50 was 15.8 µM (inconclusive).

Which results are given for `Nc1c(C(=O)Nc2ccc3c(c2)OCCO3)nnn1Cc1cccc(Cl)c1`?
IC50 [10]: 9.25 µM (active); IC50 [11]: > 111 µM (not active)

For `O=C(CSc1nc2ccccc2[nH]1)NCc1ccco1`, which IC50 [12] is on record?
Its IC50 is > 109 µM (inactive).

What about the IC50 [13] of the same molecule?
Its IC50 is > 83.3 µM (inactive).

With `CC(C)[C@]1(NC(=O)[C@H]2C=C3c4cccc5[nH]cc(c45)C[C@H]3N(C)C2)O[C@@]2(O)[C@H]3CCCN3C(=O)[C@H](Cc3ccccc3)N2C1=O` as the molecule, how does the AC50 (Cytochrome P450 2C9) read?
The AC50 was 7.94 µM (inconclusive).

What does the source list for `c1coc(-c2nnc3sc(Cc4cccs4)nn23)c1`?
IC50 (Estrogen receptor beta [8]): < 1.56 µM (active); IC50 (Estrogen receptor beta [9]): 4.41 µM (not active)

Which results are given for `NS(=O)(=O)c1ccc(NC(=O)COC(=O)/C(=C/c2cccs2)c2cccs2)cc1`?
IC50 [10]: 17.1 µM (not active); IC50 [11]: > 111 µM (not active)

With `COc1ccc(/C=C/CN2CCCC(CCC(=O)NCc3ccc(F)c(F)c3)C2)cc1` (stereo unspecified) as the molecule, how does the EC50 [14] read?
The EC50 was > 60 µM (not active).

And the EC50 [15]?
Its EC50 is < 0.1 µM (active).

And the EC50 (cells [16])?
Its EC50 is 0.037 µM (active).
